Active and inactive are the calls of the source. The rule behind the calls is not given here.
Legend:
[1] = target: T1, 5-hydroxytryptamine receptor 2C (Homo sapiens) (UniProt P28335); experiment: Displacement of [125I](+/-)DOI from human recombinant 5-HT2C receptor expressed in CHO cells at 100 nM measured after 60 mins by radioligand completion assay relative to control; format: cell-based
T1 sequence (whole entry): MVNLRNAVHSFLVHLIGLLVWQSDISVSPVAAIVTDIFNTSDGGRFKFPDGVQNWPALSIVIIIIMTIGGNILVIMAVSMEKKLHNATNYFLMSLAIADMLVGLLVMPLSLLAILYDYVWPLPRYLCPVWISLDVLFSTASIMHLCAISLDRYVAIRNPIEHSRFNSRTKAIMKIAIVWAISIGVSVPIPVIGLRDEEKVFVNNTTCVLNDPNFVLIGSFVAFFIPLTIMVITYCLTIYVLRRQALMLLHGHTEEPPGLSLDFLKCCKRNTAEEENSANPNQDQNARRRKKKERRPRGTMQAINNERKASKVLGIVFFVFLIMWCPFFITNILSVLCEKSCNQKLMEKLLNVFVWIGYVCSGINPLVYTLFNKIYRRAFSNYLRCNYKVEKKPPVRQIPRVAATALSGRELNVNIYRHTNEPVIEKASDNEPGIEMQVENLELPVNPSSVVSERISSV

[2] = Clearence in Sprague-Dawley rat at 5 mg/kg, iv; format: ADME, organism-based; conditions: in vivo
[3] = target: T2, 5-hydroxytryptamine receptor 1A (Homo sapiens) (UniProt P08908); experiment: Displacement of [3H][…] from human recombinant 5-HT1A receptor expressed in cells at 10 uM measured after 60 to 90 mins by radioligand completion assay relative to control; format: cell-based; conditions: time 60-90 min
T2 sequence (whole entry): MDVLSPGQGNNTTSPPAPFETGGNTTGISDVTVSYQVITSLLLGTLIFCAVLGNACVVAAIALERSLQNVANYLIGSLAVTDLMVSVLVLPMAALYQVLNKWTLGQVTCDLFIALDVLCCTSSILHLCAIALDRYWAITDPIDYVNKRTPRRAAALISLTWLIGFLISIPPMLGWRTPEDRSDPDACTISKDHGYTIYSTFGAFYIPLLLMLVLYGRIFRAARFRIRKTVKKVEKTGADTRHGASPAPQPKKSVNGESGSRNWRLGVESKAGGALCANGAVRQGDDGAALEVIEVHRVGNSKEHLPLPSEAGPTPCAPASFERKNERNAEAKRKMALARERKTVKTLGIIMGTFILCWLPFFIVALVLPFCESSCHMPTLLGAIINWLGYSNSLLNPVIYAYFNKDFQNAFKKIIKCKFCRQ

[4] = target: T3, 5-hydroxytryptamine receptor 1A (Homo sapiens, UniProt P08908); experiment: Displacement of [3H][…] from human recombinant 5-HT1A receptor expressed in CHO cells measured after 60 to 90 mins by radioligand completion assay relative to control; format: cell-based
T3 sequence (P08908 whole entry): T2 sequence (whole entry)

[5] = target: T1, 5-hydroxytryptamine receptor 2C (Homo sapiens); experiment: Displacement of [125I](+/-)DOI from human recombinant 5-HT2C receptor expressed in CHO cells at 10 uM measured after 60 mins by radioligand completion assay relative to control; format: cell-based
[6] = target: T4, 5-hydroxytryptamine receptor 2B (Homo sapiens, UniProt P41595); experiment: Displacement of [125I](+/-)DOI from human recombinant 5-HT2B receptor expressed in CHO cells at 100 nM measured after 60 mins by radioligand completion assay relative to control; format: cell-based
[7] = target: T5, 5-hydroxytryptamine receptor 2A (Homo sapiens, UniProt P28223); experiment: Displacement of [3H]LSD from human recombinant 5-HT2A receptor expressed in HEK cells by radioligand completion assay relative to control; format: cell-based
[8] = AUCinfinity in Sprague-Dawley rat at 5 mg/kg, iv; format: ADME, organism-based; design: time infinity, dose 5 mg/kg, route iv; conditions: in vivo
[9] = target: T5, 5-hydroxytryptamine receptor 2A; experiment: Displacement of [125I](+/-)DOI from human recombinant 5-HT2A receptor expressed in HEK293 cells at 10 uM measured after 60 to 90 mins by radioligand completion assay relative to control; format: cell-based; conditions: time 60-90 min
[10] = target: T6, 5-hydroxytryptamine receptor 3A (Homo sapiens) (UniProt P46098); experiment: Displacement of [3H]BRL43694 from human recombinant 5-HT3 receptor expressed in CHO cells at 10 uM measured after 120 mins by radioligand completion assay relative to control; format: cell-based
T6 sequence (whole entry): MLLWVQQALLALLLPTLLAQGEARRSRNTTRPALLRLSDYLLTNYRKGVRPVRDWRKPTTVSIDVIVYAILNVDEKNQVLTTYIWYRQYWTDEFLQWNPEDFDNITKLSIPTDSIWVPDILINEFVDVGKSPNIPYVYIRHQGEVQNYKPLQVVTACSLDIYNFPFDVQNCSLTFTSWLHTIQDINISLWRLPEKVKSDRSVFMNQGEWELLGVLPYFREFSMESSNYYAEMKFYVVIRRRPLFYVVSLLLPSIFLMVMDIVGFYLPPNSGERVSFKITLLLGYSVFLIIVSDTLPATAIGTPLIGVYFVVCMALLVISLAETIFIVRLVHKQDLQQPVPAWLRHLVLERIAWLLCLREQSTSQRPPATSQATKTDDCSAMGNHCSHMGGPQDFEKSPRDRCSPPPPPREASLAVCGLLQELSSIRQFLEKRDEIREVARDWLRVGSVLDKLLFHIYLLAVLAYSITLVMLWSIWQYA

[11] = target: 5-hydroxytryptamine receptor 1B (Rattus norvegicus) (UniProt P28564); experiment: Displacement of [125I]CYP from rat cerebral cortex 5-HT1B receptor at 10 uM measured after 120 mins by radioligand completion assay relative to control; format: tissue-based
[12] = target: T4, 5-hydroxytryptamine receptor 2B; experiment: biochemical
[13] = target: T4, 5-hydroxytryptamine receptor 2B; experiment: Displacement of [125I](+/-)DOI from human recombinant 5-HT2B receptor expressed in CHO cells at 10 uM measured after 60 mins by radioligand completion assay relative to control; format: cell-based
Rattus norvegicus [14] = format: functional; conditions: Sprague-Dawley, route ip, time 15 min
[15] = Apparent volume of distributed in Sprague-Dawley rat at 5 mg/kg, iv; format: ADME, organism-based; conditions: in vivo, read-out: Vz
[16] = target: T6, 5-hydroxytryptamine receptor 3A (Homo sapiens); experiment: Displacement of [3H]BRL43694 from human recombinant 5-HT3 receptor expressed in CHO cells at 100 nM measured after 120 mins by radioligand completion assay relative to control; format: cell-based
[17] = target: T5, 5-hydroxytryptamine receptor 2A; experiment: Displacement of [125I](+/-)DOI from human recombinant 5-HT2A receptor expressed in HEK293 cells at 100 nM measured after 60 to 90 mins by radioligand completion assay relative to control; format: cell-based; conditions: time 60-90 min
[18] = target: T2, 5-hydroxytryptamine receptor 1A (Homo sapiens); experiment: Displacement of [3H][…] from human recombinant 5-HT1A receptor expressed in cells at 100 nM measured after 60 to 90 mins by radioligand completion assay relative to control; format: cell-based; conditions: time 60-90 min
[19] = target: T7, 5-hydroxytryptamine receptor 2C (Homo sapiens, UniProt P28335); experiment: biochemical
T7 sequence (P28335 whole entry): T1 sequence (whole entry)

Rattus norvegicus [20] = format: functional; conditions: Sprague-Dawley, route iv
[21] = target: T4, 5-hydroxytryptamine receptor 2B; experiment: Displacement of [3H]LSD from human recombinant 5-HT2B receptor expressed in CHO cells by radioligand completion assay relative to control; format: cell-based
[22] = AUCinfinity in Sprague-Dawley rat at […], iv; format: ADME, organism-based; conditions: in vivo
Rattus norvegicus [23] = format: functional; conditions: Sprague-Dawley, route iv; remark: listed apart in the source
[24] = target: T3, 5-hydroxytryptamine receptor 1A; experiment: Displacement of [3H][…] from human recombinant 5-HT1A receptor expressed in HEK cells measured after 60 to 90 mins by radioligand completion assay relative to control; format: cell-based
[25] = target: 5-hydroxytryptamine receptor 7 (Homo sapiens, UniProt P34969); experiment: biochemical
[26] = target: T3, 5-hydroxytryptamine receptor 1A; experiment: Displacement of [3H]5-CT from human recombinant 5-HT1A receptor expressed in CHO cells measured after 60 to 90 mins by radioligand completion assay relative to control; format: cell-based
Rattus norvegicus [27] = format: functional, organism-based; conditions: Sprague-Dawley, dose 1.0 mg/kg, route ip, time 15.0 min

5-hydroxytryptamine receptor 1B (Rattus norvegicus), sequence (P28564 whole entry): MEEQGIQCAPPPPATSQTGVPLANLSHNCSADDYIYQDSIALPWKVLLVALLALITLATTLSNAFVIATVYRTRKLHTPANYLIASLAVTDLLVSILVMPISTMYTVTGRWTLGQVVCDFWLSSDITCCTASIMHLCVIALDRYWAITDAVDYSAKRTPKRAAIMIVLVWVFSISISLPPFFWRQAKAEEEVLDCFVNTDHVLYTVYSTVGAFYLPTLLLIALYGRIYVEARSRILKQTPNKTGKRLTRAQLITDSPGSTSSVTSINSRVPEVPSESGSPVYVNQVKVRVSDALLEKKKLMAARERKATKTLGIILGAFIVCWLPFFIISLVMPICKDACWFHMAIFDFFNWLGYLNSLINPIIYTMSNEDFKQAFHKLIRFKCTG
T4 sequence (P41595 whole entry): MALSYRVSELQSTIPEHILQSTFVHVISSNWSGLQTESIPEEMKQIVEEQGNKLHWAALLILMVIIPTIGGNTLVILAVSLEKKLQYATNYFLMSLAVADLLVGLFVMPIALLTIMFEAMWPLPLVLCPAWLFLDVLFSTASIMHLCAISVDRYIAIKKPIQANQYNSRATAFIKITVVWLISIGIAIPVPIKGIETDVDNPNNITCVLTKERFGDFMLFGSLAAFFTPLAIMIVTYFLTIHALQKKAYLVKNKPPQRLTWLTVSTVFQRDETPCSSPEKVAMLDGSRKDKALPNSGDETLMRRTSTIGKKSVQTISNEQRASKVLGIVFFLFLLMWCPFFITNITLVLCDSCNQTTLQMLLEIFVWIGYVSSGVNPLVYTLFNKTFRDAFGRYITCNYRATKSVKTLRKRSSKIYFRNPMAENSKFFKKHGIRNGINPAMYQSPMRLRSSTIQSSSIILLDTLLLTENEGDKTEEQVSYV
T5 sequence (P28223 whole entry): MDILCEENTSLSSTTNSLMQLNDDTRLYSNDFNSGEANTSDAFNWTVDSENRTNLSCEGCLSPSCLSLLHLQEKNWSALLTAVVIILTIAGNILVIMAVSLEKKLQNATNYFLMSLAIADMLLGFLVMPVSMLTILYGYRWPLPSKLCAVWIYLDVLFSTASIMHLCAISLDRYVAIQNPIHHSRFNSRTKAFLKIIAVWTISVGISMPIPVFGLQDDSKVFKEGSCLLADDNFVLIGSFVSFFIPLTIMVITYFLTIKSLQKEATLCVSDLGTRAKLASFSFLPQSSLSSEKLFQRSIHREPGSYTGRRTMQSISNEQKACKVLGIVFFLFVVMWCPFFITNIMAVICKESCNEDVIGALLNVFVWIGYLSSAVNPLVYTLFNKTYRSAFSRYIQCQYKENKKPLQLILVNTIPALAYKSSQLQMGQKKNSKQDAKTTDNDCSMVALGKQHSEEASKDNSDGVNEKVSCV
5-hydroxytryptamine receptor 7, sequence (P34969 whole entry): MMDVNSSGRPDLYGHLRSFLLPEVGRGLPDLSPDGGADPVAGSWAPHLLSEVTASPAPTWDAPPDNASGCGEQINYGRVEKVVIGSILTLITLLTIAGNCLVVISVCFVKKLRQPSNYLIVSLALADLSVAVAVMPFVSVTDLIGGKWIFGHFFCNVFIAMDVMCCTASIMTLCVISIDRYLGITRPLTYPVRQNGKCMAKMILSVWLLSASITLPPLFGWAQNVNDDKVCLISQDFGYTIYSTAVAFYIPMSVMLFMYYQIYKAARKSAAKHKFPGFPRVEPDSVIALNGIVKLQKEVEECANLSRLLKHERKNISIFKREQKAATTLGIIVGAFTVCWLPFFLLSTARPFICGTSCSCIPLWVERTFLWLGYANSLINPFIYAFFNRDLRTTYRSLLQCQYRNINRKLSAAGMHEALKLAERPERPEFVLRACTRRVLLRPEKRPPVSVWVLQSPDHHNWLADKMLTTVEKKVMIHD

CC[C@@H]1CN2CCc3c([nH]c4cccc(OC)c34)[C@@H]2C[C@@H]1/C(=C\OC)C(=O)OC
Activity [1]: -8.2%
CL [2]: 21.7 mL/min/kg
Activity ([3]; filed as agonist): 76.7%
Ki [4]: 5880 nM
Activity [5]: 14.7%
Activity [6]: 23%
Ki [7]: 5010 nM
AUC [8]: 849.8 ng·h/mL
Activity ([9]; filed as agonist): 49.9%
Activity [10]: -12.7%
Activity [11]: 8.2%
Ki [12]: 1260 nM
Activity ([13]; filed as agonist): 90.7%
ED50 (Rattus norvegicus [14]): 26.8 mg/kg
Vd [15]: 8 L/kg
Activity [16]: -9.1%
Activity [17]: -0.9%
Activity [18]: 9.7%
Ki [19]: > 10000 nM

CC[C@@H]1CN2CCc3c([nH]c4cccc(OC)c34)[C@H]2C[C@@H]1/C(=C\OC)C(=O)OC
Activity [1]: 0.4%
Activity [3]: 33.3%
Activity [5]: 14.3%
Activity [6]: -3.4%
Activity ([9]; filed as agonist): 68.1%
Activity [10]: 0.7%
Activity [11]: 16.8%
Activity ([13]; filed as agonist): 47.1%
Activity [16]: 11.1%
Activity [17]: 1.5%
Activity [18]: -4.8%

CC[C@H]1CN2CCc3c([nH]c4cccc(OC)c34)[C@@H]2C[C@@H]1/C(=C\OC)C(=O)OC
ED50 (Rattus norvegicus [20]): 11.6 mg/kg
Activity ([3]; filed as agonist): 98.7%
Ki [4]: 95.5 nM
Activity ([5]; filed as agonist): 77.9%
Ki [21]: 23 nM
AUC(0-inf) [22]: 495 ng·h/mL
Ki [7]: 1320 nM
ED50 (Rattus norvegicus [23]): 5.92 mg/kg
Activity [10]: 1.5%
Activity [11]: 30.4%
Ki [12]: 108 nM
ED50 (Rattus norvegicus [14]): 9.1 mg/kg
Activity [16]: 11.3%
Activity [17]: 2.8%
Ki [24]: 38.5 nM
Activity ([18]; filed as agonist): 58.9%
Ki [19]: 5430 nM

CC[C@H]1CN2CCc3c([nH]c4cccc(O)c34)[C@@H]2C[C@@H]1/C(=C\OC)C(=O)OC
Ki [4]: 294 nM
Ki [12]: 508 nM

COC(=O)C1=COC[C@H]2CN3CCc4c([nH]c5ccccc45)[C@@H]3C[C@H]12
Activity [1]: -12.5%
Activity ([3]; filed as agonist): 95.2%
Activity [5]: -5.3%
Activity [6]: 6.2%
Activity [9]: 36.5%
Activity [10]: 1.8%
Activity ([13]; filed as agonist): 89.3%
Activity [16]: -2.5%
Activity [17]: 5.1%
Activity [18]: 33.2%

C=C[C@H]1CN2CCc3c([nH]c4cccc(OC)c34)[C@@H]2C[C@@H]1/C(=C\OC)C(=O)OC
Ki [4]: 71.8 nM
Ki [21]: 20 nM
Ki [7]: 815 nM
ED50 (Rattus norvegicus [23]): 5.45 mg/kg
Ki [12]: 83.1 nM
Ki [24]: 32 nM
Ki [19]: 1770 nM
Ki [25]: 870 nM

O=C1c2ccccc2S(=O)(=O)N1CCCCN1CCN(c2ncccn2)CC1 [IPSAPIRONE]
ED50 (Rattus norvegicus [20]): 7.68 mg/kg
Ki [26]: 49.7 nM
ED50 (Rattus norvegicus [23]): 3.41 mg/kg
Activity (Rattus norvegicus [27]): inactive
ED50 (Rattus norvegicus [14]): 0.431 mg/kg

CC[C@@H]1CN2CC[C@@]3(O)C(=Nc4cccc(OC)c43)[C@@H]2C[C@@H]1/C(=C\OC)C(=O)OC
Activity [1]: -18.3%
Activity [3]: 1.2%
Activity [5]: -13.9%
Activity [6]: -1.4%
Activity [9]: 3.9%
Activity [10]: 19.5%
Activity [11]: -0.8%
Activity [13]: 12.4%
Activity [16]: 8.2%
Activity [17]: -0.2%
Activity [18]: 3.1%

C=C[C@H]1CN2CCc3c([nH]c4cccc(O)c34)[C@@H]2C[C@@H]1/C(=C\OC)C(=O)OC
Ki [4]: 97.7 nM
Ki [12]: 336 nM
